Source: PMC5784132, “Investigation of 20S-hydroxyvitamin D3 analogs and their 1α-OH derivatives as potent vitamin D receptor agonists with anti-inflammatory activities” (Scientific Reports, 2018)

Experiments:
rat CYP24A1 = target: T1, rat CYP24A1 (Rattus norvegicus, UniProt Q09128); experiment: Kinetics of metabolism of analogs in phospholipid vesicles by rat CYP24A1; assay type: in vitro ADME; conditions: for Km: rat CYP24A1 0.14 µM, phospholipid vesicles, 1 min incubation, ± SE from curve fit
T1 construct: made in house; host or cells: E. coli
T1 sequence (Q09128 36-514): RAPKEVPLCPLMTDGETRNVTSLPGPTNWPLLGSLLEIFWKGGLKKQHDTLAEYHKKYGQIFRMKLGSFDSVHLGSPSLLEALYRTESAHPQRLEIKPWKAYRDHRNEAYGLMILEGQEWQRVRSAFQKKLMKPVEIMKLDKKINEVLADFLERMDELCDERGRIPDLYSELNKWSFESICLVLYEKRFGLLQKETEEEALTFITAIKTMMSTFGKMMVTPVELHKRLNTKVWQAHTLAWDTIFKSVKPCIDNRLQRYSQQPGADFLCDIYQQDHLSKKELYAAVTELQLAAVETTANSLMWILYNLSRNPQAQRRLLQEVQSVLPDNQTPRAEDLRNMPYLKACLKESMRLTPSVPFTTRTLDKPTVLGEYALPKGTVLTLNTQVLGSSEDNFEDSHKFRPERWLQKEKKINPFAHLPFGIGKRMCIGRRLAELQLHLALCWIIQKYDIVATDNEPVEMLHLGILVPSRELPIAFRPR
Protocol: An incubation time of 1 min was chosen to obtain the initial rate based on the time courses (Fig. 6) and previous studies[28],[29].
To test metabolism of each analog, they were incorporated into phospholipid vesicles made from dioleoyl phosphatidylcholine and cardiolipin by sonication, as before[24],[28]. […] Samples from incubations with CYP24A1 were extracted with dichloromethane and analysed by HPLC using a 25 cm Grace Alltima C18 column, as before[27],[28]. […] For the more polar 33, the acetonitrile gradient was 30% to 100% acetonitrile for 30 min then 100% acetonitrile for 20 min, at 0.5 mL/min.

mouse CYP27B1 = target: T2, mouse CYP27B1 (Mus musculus, UniProt O35084); experiment: Metabolism (1α-hydroxylation) of analogs by mouse CYP27B1; assay type: in vitro ADME
T2 construct: made in house; host or cells: E. coli
T2 sequence (O35084 1-507): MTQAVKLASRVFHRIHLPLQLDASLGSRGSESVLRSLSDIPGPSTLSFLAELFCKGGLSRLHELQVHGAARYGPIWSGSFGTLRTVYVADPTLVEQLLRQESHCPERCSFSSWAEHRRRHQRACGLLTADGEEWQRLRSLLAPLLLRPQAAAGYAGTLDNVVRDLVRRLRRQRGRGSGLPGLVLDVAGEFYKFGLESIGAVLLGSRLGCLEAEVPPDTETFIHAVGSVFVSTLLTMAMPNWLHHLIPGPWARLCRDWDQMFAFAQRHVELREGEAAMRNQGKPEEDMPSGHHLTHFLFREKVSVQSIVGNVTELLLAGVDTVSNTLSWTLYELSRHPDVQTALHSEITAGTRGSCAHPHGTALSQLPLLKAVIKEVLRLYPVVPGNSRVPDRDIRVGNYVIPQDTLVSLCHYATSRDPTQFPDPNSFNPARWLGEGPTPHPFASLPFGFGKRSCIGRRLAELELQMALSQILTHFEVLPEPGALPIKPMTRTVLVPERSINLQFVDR
Protocol: In order to make the 1α-OH derivatives of the 20S(OH)D3 analogs enzymatically, and to assess their likely capacity to be 1α-hydroxylated in vivo, the ability of mouse CYP27B1 to hydroxylate these metabolites was examined. 25(OH)D3, the major natural substrate for CYP27B1[2],[30], was included for comparison. The 20S(OH)D3 analogs were incorporated into phospholipid vesicles and incubated with CYP27B1, then the extent of their metabolism was determined by HPLC (Table 2). All analogs tested except 33 were metabolized by CYP27B1. In each case only a single metabolite was produced, assumed to be the 1α-OH derivative based on the known high specificity of the enzyme for the 1α-position[24],[30],[31]. […] Metabolism of 4 was almost twice that of 20S(OH)D3 and metabolism of 23 almost three fold. Thus, the modifications to C24 and/or C25 seen in 13, 4 and 23 enhanced their ability to be metabolized by CYP27B1. […] In contrast, the introduction of an amide linkage into the side chain, as in 33, prevented its hydroxylation by CYP27B1.
Rat CYP24A1, mouse CYP27B1 and adrenodoxin and human adrenodoxin reductase were expressed in E. coli and purified as described before[28],[30],[35]. To test metabolism of each analog, they were incorporated into phospholipid vesicles made from dioleoyl phosphatidylcholine and cardiolipin by sonication, as before[24],[28]. The substrates in vesicles (510 µM phospholipid) were incubated at 37 °C with either CYP24A1 (0.14 µM) or CYP27B1 (0.8 µM) in a reconstituted system containing adrenodoxin (15 µM) and adrenodoxin reductase (0.4 µM). Samples from incubations with CYP24A1 were extracted with dichloromethane and analysed by HPLC using a 25 cm Grace Alltima C18 column, as before[27],[28]. Products (except 33) were separated using an acetonitrile on water gradient (45% to 100% for 20 min then 100% acetonitrile for 40 min at a flow rate of 0.5 mL/min). For the more polar 33, the acetonitrile gradient was 30% to 100% acetonitrile for 30 min then 100% acetonitrile for 20 min, at 0.5 mL/min. Products from incubations with CYP27B1 were similarly extracted with dichloromethane and analyzed by reverse phase HPLC using a 15 cm Grace Smart C18 column and an acetonitrile in water gradient (10 min 45% to 100% acetonitrile then 20 min at 100% acetonitrile, at 0.5 mL/min).

Question: For C=C1CC[C@H](O)C/C1=C/C=C1\CCC[C@@]2(C)[C@H]1CC[C@@H]2[C@@](C)(O)CCCC(C)C [20S(OH)D3, 20S-hydroxyvitamin D3], which “Km, fold higher than for 4” value (rat CYP24A1; rat CYP24A1) is on record?
Answer: The value was “over 17 fold”.

Question: What about the “catalytic efficiency, fold lower than for 13” value (rat CYP24A1; rat CYP24A1) of the same compound?
Answer: The value was 13 fold.

Question: And the Km (rat CYP24A1)?
Answer: The Km was 34.8 ± 9.4 mmol/mol PL.

Question: What about the “Product (% total secosteroids)” value (mouse CYP27B1; 0.018 mol/mol phospholipid, 0.8 µM mouse CYP27B1, 20 min, 37 °C) of the same compound?
Answer: Its value is 21.1 % total secosteroids.

Question: What does the source list for C=C1CC[C@H](O)C/C1=C/C=C1\CCC[C@@]2(C)[C@H]1CC[C@@H]2[C@@](C)(O)CCOC(C)C [compound 13]?
Answer: Km, fold lower than that for 20S(OH)D3 (rat CYP24A1; rat CYP24A1): 3–4 fold; kcat/Km, higher than for the next best analog, 4 (rat CYP24A1; rat CYP24A1): 72%; Km (rat CYP24A1): 7.9 ± 1.5 mmol/mol PL; conversion to product by CYP27B1, fold higher than 20S(OH)D3 (mouse CYP27B1; 20 min incubation): 4.3 fold
